Like-named read-outs stand apart in the source and are kept apart here.

One test deals with T1, human μ opiate receptor (Homo sapiens, UniProt P35372).
T1 construct: purchased PerkinElmer Life Sciences, Zaventem, Belgium RB-HOM; host or cells: CHO-K1 cells (membrane preparation)
Description: Affinity for the human μ opiate receptor ([3H]-naloxone displacement, CHO-K1 receptor membrane preparation, SPA). The test is classed as binding. Particulars: 1.5 h, test concentration 1 μM. In a few lines: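 Scintillation proximity binding on human μ receptor membranes from CHO-K1 cells used 1 nmol/l [3H]-naloxone over 90 min at room temperature in 50 mmol/l Tris-HCl, 0.06% BSA. Percent inhibition was recorded at 1 μM.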

Test [1] concerns the target T2, human bradykinin 1 receptor (B1R) (Homo sapiens, UniProt P46663).
T2 construct: expressed in transfected cells; host or cells: CHO K1 cells
T2 sequence (P46663 1-353): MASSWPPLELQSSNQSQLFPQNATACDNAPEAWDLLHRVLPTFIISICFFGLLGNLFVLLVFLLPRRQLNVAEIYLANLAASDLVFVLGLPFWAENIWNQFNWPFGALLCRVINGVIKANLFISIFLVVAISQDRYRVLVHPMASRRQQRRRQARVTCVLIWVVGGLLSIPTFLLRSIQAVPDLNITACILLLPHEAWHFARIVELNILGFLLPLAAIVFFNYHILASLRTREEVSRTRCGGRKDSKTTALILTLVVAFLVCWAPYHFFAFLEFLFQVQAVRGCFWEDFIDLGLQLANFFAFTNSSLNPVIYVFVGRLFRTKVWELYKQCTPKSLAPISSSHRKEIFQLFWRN
The experiment in a line: Functional investigation on the human bradykinin 1 receptor (B1R), Ca2+ FLIPR assay in CHO K1 hB1R cells. It counts as cell-based. Particulars: test substance 10 μM; for inhibition at 10 µM: CHO-K1, B1R antagonism human, read-out: B1R Ant. h [10 μM] % Inhibition. Summed up:
(§1)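 Cells were dye-loaded with Fluo-4 plus probenecid, then test substances added and Ca2+ influx compared with agonist control for % activation. After 10-20 min, EC80 agonist (Lys-Des-Arg9-bradykinin human; Des-Arg9-bradykinin rat) was applied; suppression gave % inhibition and IC50 values.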

In test [2] the target is T3, bradykinin 1 receptor (B1R) of the rat (Rattus norvegicus, UniProt P97583).
T3 construct: expressed in transfected cells; host or cells: CHO K1 cells
T3 sequence (P97583 1-337): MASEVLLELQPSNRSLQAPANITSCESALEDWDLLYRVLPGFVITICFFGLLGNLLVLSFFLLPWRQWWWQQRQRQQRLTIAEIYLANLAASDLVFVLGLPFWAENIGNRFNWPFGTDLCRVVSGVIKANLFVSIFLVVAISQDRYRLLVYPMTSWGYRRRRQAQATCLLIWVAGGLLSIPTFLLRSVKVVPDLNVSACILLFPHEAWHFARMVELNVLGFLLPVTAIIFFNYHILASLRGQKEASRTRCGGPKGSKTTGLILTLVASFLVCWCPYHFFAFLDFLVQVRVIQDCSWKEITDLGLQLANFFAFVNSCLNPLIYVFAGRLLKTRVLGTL
The experiment in a line: Functional investigation on the rat bradykinin 1 receptor (B1R), Ca2+ FLIPR assay in CHO K1 rB1R cells. The test is classed as cell-based. The conditions noted are these: CHO-K1, B1R antagonism rat, test substance 10 μM, read-out: B1R Ant. r [10 μM] % Inhibition. Summed up: as §1

[3] abbreviates: Table 3, to be read in the same way as Table 1, read-out: μ.
The mark [4] stands for this setting: % inhibition compared with the maximum achievable inhibition.

T1 sequence (P35372 whole entry): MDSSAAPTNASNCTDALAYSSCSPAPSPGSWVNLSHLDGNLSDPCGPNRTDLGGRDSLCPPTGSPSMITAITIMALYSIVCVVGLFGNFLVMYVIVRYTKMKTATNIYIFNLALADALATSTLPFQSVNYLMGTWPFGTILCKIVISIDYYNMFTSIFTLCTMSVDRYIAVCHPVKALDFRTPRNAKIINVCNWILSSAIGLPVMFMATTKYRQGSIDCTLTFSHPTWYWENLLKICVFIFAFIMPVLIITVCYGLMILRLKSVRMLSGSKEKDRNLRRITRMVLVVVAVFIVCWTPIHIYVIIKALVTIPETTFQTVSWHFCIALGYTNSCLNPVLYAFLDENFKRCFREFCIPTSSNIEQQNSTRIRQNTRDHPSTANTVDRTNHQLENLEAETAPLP

For the compound `COc1cc(C)c(S(=O)(=O)N2CCCC(OCC(=O)NCC3CCC(C(c4ccccc4)N4CCOCC4)CC3)C2)c(C)c1` (stereo not drawn) [Example 730, 2-(1-(4-methoxy-2,6-dimethylphenylsulfonyl)piperidin-3-yloxy)-N-((4-(morpholino(phenyl)methyl)cyclohexyl)methyl)acetamide], at human μ opiate receptor (setting [3]), the inhibition at 1 µM is 11%. Moreover, the inhibition at 10 µM in test [1] (Ca2+ FLIPR, CHO K1 hB1R cells) is 46%; in test [2] (Ca2+ FLIPR, CHO K1 rB1R cells) it was 38%.
The like results for `COc1cc(C)c(S(=O)(=O)N(C)CCOCC(=O)NCC2CCC(C(c3ccccc3)N3CCCC3)CC2)c(C)c1` (stereo not drawn) [Example 642, 2-(2-(4-methoxy-N,2,6-trimethylphenylsulfonamido)ethoxy)-N-((4-(phenyl(pyrrolidin-1-yl)methyl)cyclohexyl)methyl)acetamide] were, in that order, 54%, 105% and 105%.
As to `CN(CCOCC(=O)NC1CCC(C(c2ccccc2)N2CCCC2)CC1)S(=O)(=O)c1c(Cl)cccc1Cl` (stereo not drawn) [Example 634, 2-(2-(2,6-dichloro-N-methylphenylsulfonamido)ethoxy)-N-(4-(phenyl(pyrrolidin-1-yl)methyl)cyclohexyl)acetamide], the inhibition at 1 µM on human μ opiate receptor (setting [3]) was 68%. Besides, the inhibition at 10 µM in test [1] (Ca2+ FLIPR, CHO K1 hB1R cells) was determined as 92%; in test [2] (Ca2+ FLIPR, CHO K1 rB1R cells), 38%.
In the case of `O=C(COC1CCCN(S(=O)(=O)c2c(Cl)cc(Cl)cc2Cl)C1)NC1CCC(C(CCc2ccccc2)N2CCCCC2)CC1` (stereo not drawn) [Example 673, N-(4-(3-phenyl-1-(piperidin-1-yl)propyl)cyclohexyl)-2-(1-(2,4,6-trichlorophenylsulfonyl)piperidin-3-yloxy)acetamide], the inhibition at 1 µM at human μ opiate receptor (setting [3]) was 71%. The inhibition at 10 µM in test [1] (Ca2+ FLIPR, CHO K1 hB1R cells) amounted to 57%; in test [2] (Ca2+ FLIPR, CHO K1 rB1R cells), 20%.
As for `COc1cc(C)c(S(=O)(=O)N2CCCC(COCC(=O)NCC3CCC(C(CCc4ccccc4)N4CCCC4)CC3)C2)c(C)c1` (stereo not drawn) [Example 757, 2-((1-(4-methoxy-2,6-dimethylphenylsulfonyl)piperidin-3-yl)methoxy)-N-((4-(3-phenyl-1-(pyrrolidin-1-yl)propyl)cyclohexyl)methyl)acetamide], the inhibition at 1 µM on human μ opiate receptor (setting [3]) is 32%. For the same compound, the inhibition at 10 µM in test [1] (Ca2+ FLIPR, CHO K1 hB1R cells) stood at 103%; in test [2] (Ca2+ FLIPR, CHO K1 rB1R cells), 100%.
The like results for `CN(CCOCC(=O)NCC1CCC(C(c2ccccc2)N2CCCC2)CC1)S(=O)(=O)c1c(Cl)cccc1Cl` (stereo not drawn) [Example 643, 2-(2-(2,6-dichloro-N-methylphenylsulfonamido)ethoxy)-N-((4-(phenyl(pyrrolidin-1-yl)methyl)cyclohexyl)methyl)acetamide] were, in that order, 76%, 102% and 62%.
With `COc1cc(C)c(S(=O)(=O)N(C)CCOCC(=O)NCC2CCC(C(c3ccccc3)N3CCOCC3)CC2)c(C)c1` (stereo not drawn) [Example 718, 2-(2-(4-methoxy-N,2,6-trimethylphenylsulfonamido)ethoxy)-N-((4-(morpholino(phenyl)methyl)cyclohexyl)methyl)acetamide], the inhibition at 1 µM at human μ opiate receptor (setting [3]) was determined as 4%. The inhibition at 10 µM in test [1] (Ca2+ FLIPR, CHO K1 hB1R cells) came out at 105%; in test [2] (Ca2+ FLIPR, CHO K1 rB1R cells) it was 96%.
Take `CN1CCN(C(c2ccccc2)C2CCC(NC(=O)COCC3CCCCN3S(=O)(=O)c3c(Cl)cc(Cl)cc3Cl)CC2)CC1` (stereo not drawn) [Example 739, N-(4-((4-methylpiperazin-1-yl)(phenyl)methyl)cyclohexyl)-2-((1-(2,4,6-trichlorophenylsulfonyl)piperidin-2-yl)methoxy)acetamide]: the inhibition at 1 µM at human μ opiate receptor (setting [3]) was determined as 62%. In addition, the inhibition at 10 µM in test [1] (Ca2+ FLIPR, CHO K1 hB1R cells) came out at 104%; in test [2] (Ca2+ FLIPR, CHO K1 rB1R cells), 87%.
The like results for `CN(CCOCC(=O)NCC1CCC(C(CCc2ccccc2)N2CCOCC2)CC1)S(=O)(=O)c1c(Cl)cc(C(F)(F)F)cc1Cl` (stereo not drawn) [Example 728, 2-(2-(2,6-dichloro-N-methyl-4-(trifluoromethyl)phenylsulfonamido)ethoxy)-N-((4-(1-morpholino-3-phenylpropyl)cyclohexyl)methyl)acetamide] were, in that order, 12%, -9% and 9%.
For the compound `O=C(COC1CCCN(S(=O)(=O)c2c(Cl)cc(Cl)cc2Cl)C1)NC1CCC(C(c2ccccc2)N2CCOCC2)CC1` (stereo not drawn) [Example 691, N-(4-(morpholino(phenyl)methyl)cyclohexyl)-2-(1-(2,4,6-trichlorophenylsulfonyl)piperidin-3-yloxy)acetamide], the inhibition at 1 µM at human μ opiate receptor (setting [3]) was 58%. Besides, the inhibition at 10 µM in test [1] (Ca2+ FLIPR, CHO K1 hB1R cells) was 10%; in test [2] (Ca2+ FLIPR, CHO K1 rB1R cells), 6%.
For the compound `COc1cc(C)c(S(=O)(=O)N2CCCCC2COCC(=O)N2CCC(C(CCc3ccccc3)N3CCN(C)CC3)CC2)c(C)c1` (stereo not drawn) [Example 806, 2-((1-(4-methoxy-2,6-dimethylphenylsulfonyl)piperidin-2-yl)methoxy)-1-(4-(1-(4-methylpiperazin-1-yl)-3-phenylpropyl)piperidin-1-yl)ethanone], at human μ opiate receptor (setting [3]), the inhibition at 1 µM came out at 12%. The inhibition at 10 µM stood at 109% in test [1] (setting [4]) and 99% in test [2] (setting [4]).
The like results for `COc1cc(C)c(S(=O)(=O)N2CCCCC2COCC(=O)N2CCC(C(c3cccc(F)c3)N3CCN(C)CC3)CC2)c(C)c1` (stereo not drawn) [Example 800, 1-(4-((3-fluorophenyl)(4-methylpiperazin-1-yl)methyl)piperidin-1-yl)-2-((1-(4-methoxy-2,6-dimethylphenylsulfonyl)piperidin-2-yl)methoxy)ethanone] were, in that order, 7%, 108% and 97%.
For the compound `CN(CCOCC(=O)NCC1CCC(C(c2ccccc2)N2CCOCC2)CC1)S(=O)(=O)c1c(Cl)cccc1Cl` (stereo not drawn) [Example 706, 2-(2-(2,6-dichloro-N-methylphenylsulfonamido)ethoxy)-N-((4-(morpholino(phenyl)methyl)cyclohexyl)methyl)acetamide], the inhibition at 1 µM at human μ opiate receptor (setting [3]) was determined as 7%. Also, the inhibition at 10 µM in test [1] (Ca2+ FLIPR, CHO K1 hB1R cells) is 77%; in test [2] (Ca2+ FLIPR, CHO K1 rB1R cells), 52%.
For `COc1cc(C)c(S(=O)(=O)N2CCCC(COCC(=O)NC3CCC(C(c4ccccc4)N4CCN(C)CC4)CC3)C2)c(C)c1` (stereo not drawn) [Example 702, 2-((1-(4-methoxy-2,6-dimethylphenylsulfonyl)piperidin-3-yl)methoxy)-N-(4-((4-methylpiperazin-1-yl)(phenyl)methyl)cyclohexyl)acetamide], the inhibition at 1 µM at human μ opiate receptor (setting [3]) turned out to be 19%. In addition, the inhibition at 10 µM in test [1] (Ca2+ FLIPR, CHO K1 hB1R cells) was 70%; in test [2] (Ca2+ FLIPR, CHO K1 rB1R cells), 74%.
As to `COc1cc(C)c(S(=O)(=O)N2CCCC(COCC(=O)NCC3CCC(C(c4ccccc4)N4CCOCC4)CC3)C2)c(C)c1` (stereo not drawn) [Example 744, 2-((1-(4-methoxy-2,6-dimethylphenylsulfonyl)piperidin-3-yl)methoxy)-N-((4-(morpholino(phenyl)methyl)cyclohexyl)methyl)acetamide], the inhibition at 1 µM at human μ opiate receptor (setting [3]) is 13%. Also, the inhibition at 10 µM in test [1] (Ca2+ FLIPR, CHO K1 hB1R cells) turned out to be 18%; in test [2] (Ca2+ FLIPR, CHO K1 rB1R cells), 40%.
For `COc1cc(C)c(S(=O)(=O)N2CCC(OCC(=O)NCC3CCC(C(c4ccccc4)N4CCOCC4)CC3)C2)c(C)c1` (stereo not drawn) [Example 724, 2-(1-(4-methoxy-2,6-dimethylphenylsulfonyl)pyrrolidin-3-yloxy)-N-((4-(morpholino(phenyl)methyl)cyclohexyl)methyl)acetamide], the inhibition at 1 µM on human μ opiate receptor (setting [3]) is 8%. The inhibition at 10 µM in test [1] (Ca2+ FLIPR, CHO K1 hB1R cells) came to 55%; in test [2] (Ca2+ FLIPR, CHO K1 rB1R cells), 50%.
In the case of `COc1cc(C)c(S(=O)(=O)N(C)CCOCC(=O)NCC2CCC(C(c3ccccc3)N(C)C)CC2)c(C)c1C` (stereo not drawn) [Example 623, N-[4-(dimethylaminophenylmethyl)-cyclohexylmethyl]-2-{2-[(4-methoxy-2,3,6-trimethylbenzenesulfonyl)-methylamino]-ethoxy}-acetamide], on human μ opiate receptor (Table 2, read-out: μ receptor), the inhibition at 1 µM came out at 93%. Also, in test [1] (B1R antagonism human, Ca2+ FLIPR, CHO K1 hB1R cells), the “B1R Ant. h [10 μM] % Inhibition” value is reported as 84%. Also, the inhibition at 10 µM in test [2] (Ca2+ FLIPR, CHO K1 rB1R cells) is 41%.

Values taken from patent US8106055B2, “Substituted amide compounds” (Gruenenthal GmbH, priority 2007, dated 2012).
